Reference: PubChem BioAssay (NCI)
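Interpolation was linear, between the two tested concentrations surrounding the appropriate level; five concentrations were tested over 48 hours in 96-well plates. At the GI50, growth is halved. TGI marks complete inhibition of growth.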 Where a SMILES comes first, the peptide text is derived from it. The star is where a group is joined. Boc = CC(C)(C)OC(=O)*; OBn = c1ccc(CO*)cc1

Tests used:
Assay in all cases: NCI-60 cell line screen, 48 h
SNB-19 CNS = test system: SNB-19 CNS
IGROV1 ovarian = test system: IGROV1 ovarian
SK-OV-3 ovarian = test system: SK-OV-3 ovarian
TK-10 renal = test system: TK-10 renal
SF-268 CNS = test system: SF-268 CNS
HCT-15 colon = test system: HCT-15 colon
A498 renal = test system: A498 renal
SK-MEL-5 melanoma = test system: SK-MEL-5 melanoma
SW-620 colon = test system: SW-620 colon
HCT-116 colon = test system: HCT-116 colon
786-0 renal = test system: 786-0 renal
NCI-H522 lung = test system: NCI-H522 lung
KM12 colon = test system: KM12 colon
HOP-62 NSCLC = test system: HOP-62 NSCLC
MDA-MB-231 breast = test system: MDA-MB-231 breast
NCI/ADR-RES ovarian = test system: NCI/ADR-RES ovarian
SK-MEL-2 melanoma = test system: SK-MEL-2 melanoma
HL-60(TB) leukemia = test system: HL-60(TB) leukemia
SR leukemia = test system: SR leukemia

SMILES | TGI (SNB-19 CNS) [µM] | TGI (IGROV1 ovarian) [µM] | TGI (SK-OV-3 ovarian) [µM] | TGI (TK-10 renal) [µM] | TGI (SF-268 CNS) [µM] | TGI (HCT-15 colon) [µM] | TGI (A498 renal) [µM] | TGI (SK-MEL-5 melanoma) [µM] | TGI (SW-620 colon) [µM] | TGI (HCT-116 colon) [µM] | TGI (786-0 renal) [µM] | TGI (NCI-H522 lung) [µM] | TGI (KM12 colon) [µM] | TGI (HOP-62 NSCLC) [µM] | TGI (MDA-MB-231 breast) [µM] | TGI (NCI/ADR-RES ovarian) [µM] | TGI (SK-MEL-2 melanoma) [µM] | TGI (HL-60(TB) leukemia) [µM] | TGI (SR leukemia) [µM] | GI50 (NCI-H522 lung) [µM]
Cc1ccc(-n2cnc3c(N)nc(N)nc32)cc1 | > 100 | > 100 | > 100 | > 100 | > 100 | > 100 | > 100 | > 100 | > 100 | > 100 | > 100 | > 100 | > 100 | > 100 | > 100 | > 100 | > 100 | – | – | –
COC(=O)Nc1nc2ccc(S(=O)(=O)NC(CC(C)C)C(=O)OC)cc2[nH]1 (stereo unspecified) | 45 | 6.45 | > 100 | 31.9 | > 100 | > 100 | 28 | 4.21 | > 100 | 19.1 | > 100 | 0.888 | 12.6 | > 100 | > 100 | 59.6 | > 100 | 8.04 | – | –
O=C1c2ccccc2C(O)(C(=O)O)C1(O)CC=C(Cl)Cl (stereo unspecified) | > 78.9 | > 125 | > 125 | – | > 125 | > 125 | > 125 | > 125 | > 125 | > 125 | – | > 125 | > 125 | > 125 | – | > 125 | > 125 | > 125 | – | –
O=C(O)c1ccc(P(=O)(O)c2ccc(C(=O)O)cc2Br)c(Br)c1 | > 100 | > 100 | > 100 | > 100 | > 100 | > 100 | – | > 100 | > 100 | > 100 | > 100 | > 100 | > 100 | > 100 | > 100 | – | > 100 | > 100 | – | –
O=C(c1cc(Cl)cc(Cl)c1)N(C(=O)N1CCN(c2ccccc2)CC1)c1ccccc1 | > 100 | – | > 100 | > 100 | > 100 | > 100 | > 100 | 75.7 | > 100 | > 100 | > 100 | > 100 | > 100 | > 100 | > 100 | > 100 | > 100 | > 100 | – | –
CC(=O)Oc1cc2c(n(C)c1=O)-c1ccccc1C2 | > 100 | > 100 | > 100 | > 100 | > 100 | > 100 | > 100 | > 100 | 65.9 | > 100 | > 100 | 30.7 | > 100 | > 100 | > 100 | 58.3 | > 100 | – | – | –
COc1cc(OCc2nc3ccccc3n3cccc23)cc(OC)c1OC | > 100 | > 100 | > 100 | > 88.6 | > 100 | > 100 | > 100 | 9.35 | > 54.5 | > 60.5 | > 74.3 | > 65.9 | > 50.6 | > 100 | > 100 | > 80.4 | > 100 | 48.2 | – | –
CCOC(=O)CCC(NC(=O)c1ccc(CNc2nc3ccccc3nc2C(=O)OCC)cc1)C(=O)OCC (stereo unspecified) | > 100 | > 100 | > 100 | > 100 | > 100 | > 100 | > 100 | > 100 | > 100 | > 100 | > 100 | > 100 | > 100 | > 100 | > 100 | > 100 | > 100 | – | – | –
Ic1ncnc2c1ncn2C1CCCO1 (stereo unspecified) | > 100 | > 100 | > 100 | > 100 | > 100 | > 100 | > 100 | > 100 | > 100 | > 100 | > 100 | > 100 | > 100 | > 100 | – | – | > 100 | > 100 | > 100 | –
COc1ccc2cc(Oc3ccc(Cl)cc3)c(=O)oc2c1 | > 100 | > 100 | – | > 100 | > 100 | > 100 | > 100 | > 100 | > 100 | > 100 | > 100 | > 100 | > 100 | > 100 | > 100 | – | – | > 100 | > 100 | –
CC(C)C(NC(=O)C(Cc1ccccc1)NC(=O)OC(C)(C)C)C(=O)NCC(=O)OCc1ccccc1 (stereo not drawn) (Boc-Phe-Val-Gly-OBn; configuration not given here) | 58.4 | 27.8 | 28 | 27.1 | 28.2 | 26.7 | > 100 | – | 29.1 | 40 | 32.1 | 20.1 | – | 35.6 | 32.3 | > 100 | 32 | 34.4 | – | –
CC(=O)O[C@@H]1CC[C@@]2(C)C(CC[C@H]3[C@@H]4CC[C@H]([C@H](C)CCc5nc6ccc(C)cc6[nH]5)[C@@]4(C)CC[C@@H]32)C1 (stereo partly specified) | > 100 | 19.1 | > 100 | > 100 | > 100 | > 100 | > 100 | > 100 | > 100 | > 100 | > 100 | > 100 | 31.7 | > 100 | 55.3 | > 100 | > 100 | – | – | –
Cc1csc2nc3c(cnn3C)c(=S)n12 | > 100 | > 100 | > 100 | > 100 | > 100 | > 100 | – | > 100 | > 100 | > 100 | > 100 | 41.9 | > 100 | > 100 | > 10 | > 100 | > 100 | – | > 100 | –
OC(CCN1CCCCC1)(c1ccccc1)c1ccccc1 | > 100 | > 100 | > 100 | > 100 | > 100 | > 100 | > 100 | > 100 | > 100 | > 100 | > 100 | > 100 | > 100 | > 100 | > 100 | > 100 | > 100 | – | – | –
CC(C)(C)O/C=C1/C(=O)OC2C[C@@H](O[Si](C)(C)C(C)(C)C)CC12 (stereo partly specified) | > 100 | > 100 | > 100 | > 100 | > 100 | > 100 | > 100 | > 100 | > 100 | > 100 | > 100 | 87.4 | > 100 | > 100 | > 100 | > 100 | > 100 | – | – | –
CCOC(=O)NNC(=O)C1CSC(c2ccccc2)N1C(C)=O (stereo unspecified) | > 100 | > 100 | > 100 | > 100 | > 100 | > 100 | > 100 | > 100 | > 100 | > 100 | > 100 | > 100 | > 100 | > 100 | > 100 | > 100 | > 100 | > 100 | – | –
COc1cccc(OC/C(N=Cc2cccnc2)=N/NC(=O)c2ccncc2)c1 | > 100 | > 100 | > 100 | > 100 | > 100 | > 100 | > 100 | – | > 100 | > 100 | > 100 | > 100 | > 100 | > 100 | > 100 | > 100 | > 100 | > 100 | – | –
CN(C)C=Nc1cccc2nsnc12 | > 100 | > 100 | > 100 | > 100 | > 100 | > 100 | > 100 | > 100 | – | > 100 | > 100 | > 100 | – | > 100 | > 100 | > 100 | > 100 | > 100 | – | –
CN(C)C=C1C(=O)c2c(Br)sc(Br)c2C1=O | 80.4 | 46.8 | 62.7 | 99.7 | 32.5 | 54.7 | 47.8 | 30.6 | > 100 | 53.9 | > 100 | 31.5 | > 100 | 91.4 | – | 73.2 | 31.3 | 53.7 | – | –
COC1CC(C)C(OC)C2=CC(=O)C=C(NC(=O)/C(C)=C/C=C\C(C)C(OC(N)=O)/C(C)=C\C(C)C1OC)C2=O (stereo unspecified) | 18.1 | 17.8 | 2.81 | 9.81 | 6.98 | 3.31 | 24.2 | 15 | 1.05 | 1.51 | 2.87 | 0.728 | 1.43 | 10.5 | – | – | 21.5 | 1.13 | 0.729 | 0.0592
O=c1c(C=Nc2ccccc2Cl)c(O)n(-c2ccccc2)c(=O)n1-c1ccccc1 | > 100 | > 100 | > 100 | > 100 | > 100 | > 100 | > 100 | > 100 | > 100 | > 100 | > 100 | > 100 | > 100 | > 100 | > 100 | > 100 | > 100 | – | – | –
CCOC(=O)C(C(=O)OCC)=C1NC2(c3ccccc3Nc3ccc(C)cc32)C(C#N)S1 (stereo unspecified) | 30.8 | 27.2 | 98.9 | 31.1 | 36.2 | 29.5 | 29.4 | 20 | 30.3 | 22 | 30.1 | 30 | 41.3 | 33.7 | – | 25.7 | 22.1 | 61.2 | 4.99 | –
COc1ccc(Nc2nnc(CCCCCCCCc3nnc(Nc4ccc(OC)cc4)o3)o2)cc1 | > 100 | > 100 | > 100 | > 100 | > 100 | > 100 | > 100 | > 100 | > 100 | > 100 | > 100 | > 100 | > 100 | > 100 | > 100 | > 100 | > 100 | > 100 | – | –
COC(=O)C(C)NP(=O)(N1CC1)N1CC1 (stereo unspecified) | > 100 | > 100 | > 100 | > 100 | > 100 | > 100 | > 100 | > 100 | > 100 | – | – | > 100 | > 100 | – | – | – | > 100 | > 100 | – | –
Cc1oc2c(c1C)S(=O)(=O)C(C#N)C(c1ccccc1)N2 (stereo unspecified) | > 100 | > 100 | > 100 | > 100 | > 100 | > 100 | > 100 | > 100 | > 100 | > 100 | > 100 | 40.2 | > 100 | > 100 | > 100 | > 100 | > 100 | – | – | –
CCC(Sc1cc(Cl)c(C)cc1S(=O)(=O)Nc1nc(N)nc(N(C)C)n1)C(=O)O (stereo unspecified) | > 10 | > 10 | > 10 | > 10 | > 10 | > 10 | > 10 | > 10 | > 10 | > 10 | > 10 | > 10 | > 10 | > 10 | – | > 10 | > 10 | > 10 | > 10 | –
CN(C)c1ccc(/C=N\NC(=O)c2ccccc2Nc2ccccc2C(=O)N/N=C/c2ccc(N(C)C)cc2)cc1 | > 100 | > 100 | > 100 | > 100 | > 100 | > 100 | > 100 | > 100 | > 100 | > 100 | > 100 | – | > 100 | > 100 | 67.8 | > 100 | > 100 | – | > 100 | –
